{"source": "patent US7741288B2", "about": "“Methods of screening of PP1-interacting polypeptides or proteins, peptides inhibiting PP1c binding to Bcl-2 proteins, Bcl-xL and Bcl-w, and uses thereof” (Institut Pasteur, priority 2002, dated 2010)", "key": {"[1]": {"system": "type 1 and type 2A activities", "assay": "In vitro phosphatase assay in supernatants of Bad and Bcl-w immunoprecipitates with okadaic acid", "assay_type": "biochemical, murine", "settings": "10^−9 M OA", "experimental": "B) Different concentrations of OA were added to Bad or Bcl-w immunoprecipitates from IL-4 stimulated cells. Phosphatase activity was estimated using ^32P phosphorylase a as substrate. The reaction was as in A. Similar results were obtained in three independent experiments. Phosphatase activity is represented as the percentage of maximal activity in untreated supernatants.\n(§1) IL-4-stimulated cells (1×10^7) were lysed in lysis buffer, supernatants were immunoprecipitated with the corresponding antibody, followed by incubation with Protein A Sepharose. Immunoprecipitates were washed with phosphatase buffer (50 mM Tris HCl, pH 7.5, 0.1% 2-ME, 0.1 mM EDTA and 1 mg/ml BSA) and mixed with [^32P] phosphorylase a, diluted in phosphatase buffer supplemented with caffeine. The reaction was incubated (40 min at 30° C.), stopped with 200 μl 20% TCA and centrifuged. A total of 185 μl of the supernatant were used to estimate the generation of free phosphate liberated from [^32P] phosphorylase a.\nThe enzymatic activity in the immunoprecipitates was measured using ^32P-labeled phosphorylase a as substrate. It is interesting to notice that phosphatase activity detected in Bcl-xL and Bcl-w immunoprecipitates nearly corresponds to the phosphatase activity observed in Bad immunoprecipitates. […]"}, "TS1αβ cells": {"system": "TS1αβ cells", "assay": "Apoptosis by propidium iodide staining and flow cytometry", "assay_type": "cell-based, murine", "settings": "IL-4-deprived cells, 1 μM OA for 6 h"}, "PP1c [2]": {"target": "T1, PP1c (Mus musculus, UniProt P62137)", "assay": "In vitro phosphatase assay in Bad or Bcl-w immunoprecipitates with okadaic acid, 32P phosphorylase a as substrate", "assay_type": "biochemical, murine", "set-up": "enzymatic activity was estimated in Bad or Bcl-w immunoprecipitates from IL-4-stimulated cells; endogenous in cells; host or cells: TS1αβ murine T cell line, IL-4-stimulated; anti-Bad or anti-Bcl-w immunoprecipitates on Protein A Sepharose", "experimental": "B) Different concentrations of OA were added to Bad or Bcl-w immunoprecipitates from IL-4 stimulated cells. Phosphatase activity was estimated using ^32P phosphorylase a as substrate. […] Phosphatase activity is represented as the percentage of maximal activity in untreated supernatants.\nas §1\nThe enzymatic activity in the immunoprecipitates was measured using ^32P-labeled phosphorylase a as substrate. […] To confirm that this phosphatase activity was due to PP1c, enzymatic activity was estimated in Bad or Bcl-w immunoprecipitates from IL-4-stimulated cells in the presence of different okadaic acid (OA) concentrations (FIG. 5B). […] The effect of OA on phosphatase activity was also estimated in supernatants of Bad and Bcl-w immunoprecipitates."}, "Bad": {"system": "Bad", "assay": "Serine 136 phosphorylation of Bad in OA-treated cells, western blot", "assay_type": "cell-based, murine", "experimental": "A) Cells were treated with or without 1 μM OA in the presence or the absence of IL-4. […] Protein bands were detected using ECL.\nCells (1×10^7) were IL-4-stimulated or -deprived and lysed for 20 min at 4° C. in lysis buffer (50 mM Tris HCl pH 8, 1% NP40, 137 mM NaCl, 1 mM MgCl2, 1 mM CaCl2, 10% glycerol and protease inhibitors cocktail). Digitonin or detergent free buffers were also used for immunoprecipitation. For phosphorylation analysis, the buffer was also supplemented with phosphatase inhibitors cocktail. Lysates were immunoprecipitated with the Appropriate antibody and Protein A Sepharose was added. Alliteratively, cells were lysed in Laemmli sample buffer and protein extracts separated by SDS-PAGE, transferred to nitrocellulose, blocked and incubated with primary antibody. Membrane was washed and incubated. with PO-conjugated secondary antibody. Proteins were developed using the ECL.\nAs IL-4-deprivation correlates with Bad dephosphorylation and apoptosis, it was hypothesized that inhibition of phosphatase activity by okadaic acid (OA) treatment may prevent Bad dephosphorylation and apoptosis. Treatment of the cells with 1 μM OA in the absence of IL-4 prevented Bad dephosphorylation at serine 136 (FIG. 9A). […] The inhibition of Bcl-xL and Bcl-w expression upon antisense oligonucleotide treatment was estimated by Western blot."}, "PP1c [3]": {"target": "T2, PP1c (Homo sapiens, UniProt P62136)", "T2 construct": "purchased Calbiochem", "T2 sequence (P62136 whole entry)": "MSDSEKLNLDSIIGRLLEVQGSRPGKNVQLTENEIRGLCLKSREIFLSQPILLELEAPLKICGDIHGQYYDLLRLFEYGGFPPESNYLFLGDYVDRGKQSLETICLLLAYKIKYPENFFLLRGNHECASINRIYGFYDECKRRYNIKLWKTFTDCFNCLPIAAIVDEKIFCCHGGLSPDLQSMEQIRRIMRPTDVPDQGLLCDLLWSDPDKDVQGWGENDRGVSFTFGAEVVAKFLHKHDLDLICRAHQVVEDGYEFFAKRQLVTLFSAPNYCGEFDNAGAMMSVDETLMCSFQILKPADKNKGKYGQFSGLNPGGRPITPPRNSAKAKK", "assay": "PP1c binding assay on cellulose-bound Bcl-xL or Bcl-w peptides", "settings": "membrane-immobilized peptides, anti-PP1c antibody, ECL", "text": "Spots were detected using ECL system. […] Mutated amino acids into the motif are in bold and underlined. Similar results were obtained in two independent experiments. Peptide 1 corresponds to the PP1 binding motif of Bcl-xL and Bcl-w. Peptide 2 corresponds to the mutated PP1 binding site were V and F residues were mutated to A. FIG. 5b contains the following sequences: NWGRIVAFFSFG (SEQ ID NO: 6), NWGRIAAAFSFG (SEQ ID NO: 51): GDEFELRYRRAF (SEQ ID NO: 7). GDEGELGYGRAF (SEQ ID NO: 59): GDESELSYSRAF (SEQ ID NO: 54). GDEFELGYGRAF (SEQ ID NO: 55): GDEFELSYSRAF (SEQ ID NO: 56). GDEGELRYRRAF (SEQ ID NO: 57): GDEGELRYRRAF (SEQ ID NO: 58): GDEGELGYRRAF (SEQ ID NO: 59). GDESELSYRRAF (SEQ ID NO: 60). PNWGRLVAFFVFG (SEQ ID NO: 61): PNWGRLAAAFVFG (SEQ ID NO: 62). GDEFETRFRRTFS (SEQ ID NO: 63): GDEFETGFGRTFS (SEQ ID NO: 64). GDEFETGFGRTFS (SEQ ID NO: 65), GDEFETRFGRTFS (SEQ ID NO: 66). GDEGETGFRRTFS (SEQ ID NO: 67). GDEGETRFRRTFS (SEQ ID NO: 68). FIG. 5a contains the following sequences FSRRYR (SEQ ID NO: 5). FTARGR (SEQ ID NO: 5). FELRYR (SEQ ID NO: 5). FETRFR (SEQ ID NO: 5).\nMembrane was blocked, incubated with purified PP1c and, after several washing steps, incubated with anti-PP1c antibody, followed by PO-conjugated secondary antibody. Spots were developed using the ECL system.\nIt has been described that R/K X V/I X F motif is shared by most of the PP1c targeting subunits (21, 23). […]"}, "PP1c [4]": {"target": "T1, PP1c", "assay": "Phosphatase activity in peptide-treated Bad immunoprecipitates", "assay_type": "biochemical, murine", "set-up": "Lysates from IL-4-stimulated cells were immunoprecipitated with anti-Bad antibody and Protein A Sepharose was added; endogenous in cells; host or cells: TS1αβ murine T cell line, IL-4-stimulated; anti-Bad immunoprecipitates on Protein A Sepharose", "settings": "1.5 mM peptide, 30 min, room temperature", "experimental": "B) Cytoplasmic lysates from IL-4-stimulated cells were immunoprecipitated with anti-Bad antibody. Immunoprecipitates were treated with 1.5 mM of R, R*, F or R+F peptides for 30 min at room temperature. Immunoprecipitates were washed and phosphatase activity estimated using ^32P phosphorylase a as substrate. Similar results were obtained in two independent experiments.\nC) Cytoplasmic lysates from IL-4-stimulated cells were immunoprecipitated with anti-Bad antibody and then treated with 1.5 mM of R+F peptide or 3 mM of R or F peptide (30 min, room temperature). Immunoprecipitates were washed and phosphatase activity estimated as in B.\nIL-4-stimulated cells (1×10^7) were lysed in lysis buffer, supernatants were immunoprecipitated with the corresponding antibody, followed by incubation with Protein A Sepharose. […]\n(§2) Lysates from IL-4-stimulated cells were immunoprecipitated with anti-Bad antibody and the interaction Bcl-xL/PP1c and Bcl-w/PP1c was competed using R* (NWGRIAAAFSF) (SEQ ID NO: 8), R (NWGRIVAFFSF) (SEQ ID NO: 6) or F (GDEFELRYRRAF) (SEQ ID NO: 7) peptides (FIG. 8A). Bcl-xL, Bcl-w and PP1c were detected in control anti-Bad immunoprecipitates, as well as in anti-Bad immunoprecipitates treated with R* peptide. […] Phosphatase activity was detected in control or R* peptide-treated immunoprecipitates (FIG. 8B), decreasing upon competition of the interaction with F or R peptides. […]"}, "[5]": {"target": "T3, Bcl-xL/PP1c/Bad and Bcl-w/PP1c/Bad (Mus musculus, UniProt P62137)", "T3 construct": "Lysates from IL-4-stimulated cells were immunoprecipitated with anti-Bad antibody and Protein A Sepharose was added; endogenous in cells; host or cells: TS1αβ murine T cell line, IL-4-stimulated; anti-Bad immunoprecipitates on Protein A Sepharose", "T3 sequence (P62137 2-330 limits assumed)": "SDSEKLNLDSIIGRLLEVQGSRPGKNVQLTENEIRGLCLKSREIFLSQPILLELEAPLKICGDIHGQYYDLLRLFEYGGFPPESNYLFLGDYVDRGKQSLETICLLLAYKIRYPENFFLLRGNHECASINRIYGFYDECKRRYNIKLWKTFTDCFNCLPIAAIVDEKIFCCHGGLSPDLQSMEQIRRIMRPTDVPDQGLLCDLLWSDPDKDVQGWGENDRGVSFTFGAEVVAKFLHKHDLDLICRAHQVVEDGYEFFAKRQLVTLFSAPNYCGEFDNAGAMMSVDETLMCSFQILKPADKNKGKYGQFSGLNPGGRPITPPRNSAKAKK", "assay": "Protein-protein interaction competition in anti-Bad immunoprecipitates, western blot", "assay_type": "binding, murine", "settings": "1.5 mM peptide, 30 min, room temperature; anti-Bad immunoprecipitates of IL-4-stimulated cells", "experimental": "A) Cytoplasmic extracts from control IL-4-stimulated cells were immunoprecipitated with anti-Bad antibody. The interaction Bcl-xL/PP1c/Bad and Bcl-w/PP1c/Bad was competed with 1.5 mM of R, R*, F or R+F peptides for 30 min at room temperature. Immunoprecipitates were washed, transferred to nitrocellulose and blotted with anti-Bad, anti-PP1c, anti-Bcl-xL and anti-Bcl-w. Similar results were obtained in two independent experiments. For sequence of peptides, see Materials and Methods or FIGS. 5A and 5B.\nCells (1×10^7) were IL-4-stimulated or -deprived and lysed for 20 min at 4° C. in lysis buffer (50 mM Tris HCl pH 8, 1% NP40, 137 mM NaCl, 1 mM MgCl2, 1 mM CaCl2, 10% glycerol and protease inhibitors cocktail). Digitonin or detergent free buffers were also used for immunoprecipitation. […]\nas §2"}}, "data": [{"molecule": "C=C1[C@@H](O)[C@@H]2O[C@]3(CC[C@H](/C=C/[C@@H](C)[C@@H]4CC(C)=C[C@@]5(O[C@H](C[C@@](C)(O)C(=O)O)CC[C@H]5O)O4)O3)CC[C@H]2O[C@@H]1[C@@H](O)C[C@H](C)[C@H]1O[C@@]2(CCCCO2)CC[C@H]1C", "note": "[OA, okadaic acid]", "values": [{"measurement": "inhibition of phosphatase activity in the supernatant", "setting": "[1]", "value": "~50", "unit": "%"}, {"measurement": "fraction of apoptotic cells compared with untreated cells", "setting": "TS1αβ cells", "value": "significant reduction"}, {"measurement": "phosphatase activity", "setting": "PP1c [2]; 10^−6 M OA, Bcl-w or Bad immunoprecipitates", "value": "strongly reduced"}, {"measurement": "inhibition at 0.01 µM", "setting": "PP1c [2]; 10^−8 M OA, Bcl-w or Bad immunoprecipitates", "value": "~50", "unit": "%"}, {"measurement": "effect on Bad- or Bcl-w-associated phosphatase activity in vitro", "setting": "PP1c [2]; 10^−9 M OA, Bad or Bcl-w immunoprecipitates from IL-4-stimulated cells", "value": "no effect"}, {"measurement": "Bad dephosphorylation at serine 136", "setting": "Bad; 1 μM OA in the absence of IL-4", "value": "prevented"}, {"measurement": "total Bad expression", "setting": "Bad; after OA treatment (1 μM)", "value": "No changes"}]}, {"molecule": "FELRYR", "values": [{"measurement": "binding to purified PP1c", "setting": "PP1c [3]", "value": "interacts with PP1c"}]}, {"molecule": "FETRFR", "values": [{"measurement": "binding to purified PP1c", "setting": "PP1c [3]", "value": "interacts with PP1c"}]}, {"molecule": "GDEFELRYRRAF [F peptide]", "values": [{"measurement": "phosphatase activity in peptide-treated Bad immunoprecipitates", "setting": "PP1c [4]", "value": "decreasing"}, {"measurement": "amount of Bcl-xL, Bcl-w and PP1c associated to Bad after competition", "setting": "[5]", "value": "decreases"}]}]}
